Drawing on patent US20060194805A1, “Capsaicin receptor agonists” (Neurogen Corporation, priority 2003, published 2006), this text covers EC50 and EC90 for six molecules.

The EC50 is the midpoint of the concentration-response curve.

The assay deals with T1, human capsaicin receptor (Homo sapiens, UniProt Q8NER1).
T1 construct: transfected with the pBK-CMV expression construct encoding the full length human capsaicin receptor; expressed in transfected cells
Description: Calcium mobilization assay (determination of agonist activity), Example 7. The assay is classed as cell-based. The settings on record: for EC50: HEK293 cells expressing human capsaicin receptor, FLUO-3 calcium fluorescence, read-out: EC50, capsaicin receptor agonist activity as described in Example 7. The source says:
A cDNA encoding full length human capsaicin receptor (SEQ ID NO:1, 2 or 3 of U.S. Pat. No. 6,482,611) was subcloned in the plasmid pBK-CMV (Stratagene, La Jolla, Calif.) for recombinant expression in mammalian cells.
Human embryonic kidney (HEK293) cells were transfected with the pBK-CMV expression construct encoding the full length human capsaicin receptor using standard methods. […] Independent clones were isolated from this pool by limiting dilution to obtain clonal stable cell lines for use in subsequent experiments.
The culture medium is emptied from the 96 well plates and FLUO-3 AM calcium sensitive dye (Molecular Probes, Eugene, Oreg.) is added to each well (dye solution: 1 mg FLUO-3 AM, 440 μL DMSO and 440 μl 20% pluronic acid in DMSO, diluted 1:250 in Krebs-Ringer HEPES (KRH) buffer (25 mM HEPES, 5 mM KCl, 0.96 mM NaH2PO4, 1 mM MgSO4, 2 mM CaCl2, 5 mM glucose, 1 mM probenecid, pH 7.4), 50 μl diluted solution per well). Plates are covered with aluminum foil and incubated at 37° C. for 1-2 hours in an environment containing 5% CO2.
To measure the ability of a test compound to agonize or antagonize a calcium mobilization response in cells expressing capsaicin receptors to capsaicin or other vanilloid agonist, the EC50 of the agonist capsaicin is first determined. An additional 20 μl of KRH buffer and 1 μl DMSO is added to each well of cells, prepared as described above. 100 μl capsaicin in KRH buffer is automatically transferred by the FLIPR instrument to each well. Capsaicin-induced calcium mobilization is monitored using either FLUOROSKAN ASCENT (Labsystems; Franklin, Mass.) or FLIPR (fluorometric imaging plate reader system; Molecular Devices, Sunnyvale, Calif.) instruments. Data obtained between 30 and 60 seconds after agonist application are used to generate an 8-point concentration response curve, with final capsaicin concentrations of 1 nM to 3 μM. […] software (Synergy Software, Reading, Pa.) is used to fit the data to the equation: y=a*(1/(1+(b/x)c)) to determine the 50% excitatory concentration (EC50) for the response. In this equation, y is the maximum fluorescence signal, x is the concentration of the agonist or antagonist (in this case, capsaicin), a is the Emax, b corresponds to the EC50 value and c is the Hill coefficient. Determination of Agonist Activity
Test compounds are dissolved in DMSO, diluted in KRH buffer, and immediately added to cells prepared as described above. […] The final concentration of test compounds in the assay wells is between 0.1 nM and 5 μM.
The ability of a test compound to act as an agonist of the capsaicin receptor is determined by measuring the fluorescence response of cells expressing capsaicin receptors elicited by the compound as function of compound concentration.
(Calcium flux is commonly read through the fluorescence of an indicator in the cells.)

T1 sequence (Q8NER1 whole entry): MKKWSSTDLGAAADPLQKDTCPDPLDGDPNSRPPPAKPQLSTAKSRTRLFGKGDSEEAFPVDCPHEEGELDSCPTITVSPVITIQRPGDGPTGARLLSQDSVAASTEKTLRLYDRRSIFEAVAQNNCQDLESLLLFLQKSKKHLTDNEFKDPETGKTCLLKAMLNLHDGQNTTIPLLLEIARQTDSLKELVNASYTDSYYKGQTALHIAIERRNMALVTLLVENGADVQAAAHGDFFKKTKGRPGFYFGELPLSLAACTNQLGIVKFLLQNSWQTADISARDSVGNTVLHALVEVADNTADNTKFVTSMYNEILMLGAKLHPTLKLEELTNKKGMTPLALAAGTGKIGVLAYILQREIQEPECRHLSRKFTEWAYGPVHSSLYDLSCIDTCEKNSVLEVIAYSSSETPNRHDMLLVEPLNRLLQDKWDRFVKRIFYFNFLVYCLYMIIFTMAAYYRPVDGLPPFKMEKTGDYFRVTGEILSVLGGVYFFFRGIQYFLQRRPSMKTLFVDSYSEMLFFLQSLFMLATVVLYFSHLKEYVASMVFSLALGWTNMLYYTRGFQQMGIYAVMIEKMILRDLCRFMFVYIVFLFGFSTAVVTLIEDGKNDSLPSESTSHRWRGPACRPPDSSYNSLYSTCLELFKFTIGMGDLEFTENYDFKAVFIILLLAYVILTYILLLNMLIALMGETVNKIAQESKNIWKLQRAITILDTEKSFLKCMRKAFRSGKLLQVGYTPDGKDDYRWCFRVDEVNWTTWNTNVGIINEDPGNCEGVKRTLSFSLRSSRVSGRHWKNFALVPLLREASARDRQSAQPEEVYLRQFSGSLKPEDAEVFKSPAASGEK

Consider `CC(C)(C)c1cc(Nc2ncnc3cc(Br)cnc23)no1` [Compound 2], for which the 50% effective concentration (EC50) was under 1000 nM. Consider `C[C@@H]1CN(Cc2nc(Nc3ccc(C(C)(C)C)cc3)c3ccc(C(F)(F)F)cc3n2)C[C@H](C)O1` [Compound 3, (4-t-butyl-phenyl)-[2-(cis-2,6-dimethyl-morpholin-4-ylmethyl)-7-trifluoromethyl-quinazolin-4-yl)-amine], for which the EC50 is under 1000 nM. Turning to `COc1cc(CNC(=O)CCCC/C=C/C(C)C)ccc1O` [capsaicin], the EC90 (capsaicin positive control, calcium mobilization, read-out: approximate EC90 concentration) was about 100 nM. `O=C(NCc1ccccc1)c1cc(-c2cccc(Cl)c2)nc2ccncc12` [Compound 65, 2-(3-chloro-phenyl)-[1, 6]-naphthyridine-4-carboxylic acid benzylamide]: the EC50 is under 1000 nM. On to `FC(F)(F)c1ccc(Nc2ncnc3cc(Br)ccc23)nc1` [Compound 1, (7-bromo-quinazolin-4-yl)-(5-trifluoromethyl-pyridin-2-yl)-amine], for which the EC50 was under 1000 nM.

Regarding `CCCn1c(CN(Cc2ccc(Cl)cc2Cl)Cc2c(OCC)ccc3ccccc23)nc2cc(F)ccc21` [Compound 55], the EC50 is under 1000 nM.
